Patent EP3456336B1, “A CELERY SEED AND SOPHORA FLOWER BUD EXTRACT AND MEDICAL USE THEREOF” (Beijing Tianheng Junwei Pharmaceutical Tech Co., Ltd, priority 2016, dated 2017)

Legend:
Type in all cases: in vivo, SD rats
Conditions in all cases: Benzbromarone group 20 mg/kg
[1] = system: adenosine deaminase (ADA); assay: Serum adenosine deaminase activity in hyperuricemia model rats (enzymatic colorimetric method)
Method: (§1) SD rats were stratified by weight using random number table method, and each layer was divided into a normal group (10 rats), a fructose modeling group (50 rats) and a purine modeling group (24 rats) using random number table method. Tap water was administered to the normal group; a 10% (w/v) fructose solution was administered to the fructose modeling group for modeling; and for the purine modeling group, tap water was administered for drinking, 500 mg/kg of hypoxanthine + 100 mg/kg of nicotinic acid was administered by gastric perfusion according to body weight once a day, and the volume of perfusion was 10 ml/kg. The food and water consumption of rats were recorded daily, the body weights were weighed every 7 days, and blood was taken by shearing the tail tip on the next day of weighing. […] Table 1 Gastric perfusion dosages of rats in each group Every 7 days during the experiment, the body weights of the animals were weighed and recorded, blood was taken from the tail vein, and serum was separated by centrifugation. The uric acid (UA), urea nitrogen (BUN), creatinine (CRE), xanthine oxidase (XOD), adenosine deaminase (ADA) and guanine deaminase (GuDa) in serum were detected. […] In the presence of an electron acceptor and a developer, a purple red conjugate was produced, and the activity of xanthine oxidase could be calculated according to the amount of the latter produced. […]

guanine deaminase (GuDa) = assay: Serum guanine deaminase activity in hyperuricemia model rats (single enzyme reagent method)
Method: SD rats were stratified by weight using random number table method, and each layer was divided into a normal group (10 rats), a fructose modeling group (50 rats) and a purine modeling group (24 rats) using random number table method. Tap water was administered to the normal group; a 10% (w/v) fructose solution was administered to the fructose modeling group for modeling; and for the purine modeling group, tap water was administered for drinking, 500 mg/kg of hypoxanthine + 100 mg/kg of nicotinic acid was administered by gastric perfusion according to body weight once a day, and the volume of perfusion was 10 ml/kg. The food and water consumption of rats were recorded daily, the body weights were weighed every 7 days, and blood was taken by shearing the tail tip on the next day of weighing. […] Among them, 0.5% CMC-Na was administered to the normal group and the model group by gastric perfusion, and respective drugs dissolved in 0.5% CMC-Na were administered to the other administration groups by gastric perfusion. The perfusion was performed once every morning. […] Table 1 Gastric perfusion dosages of rats in each group Every 7 days during the experiment, the body weights of the animals were weighed and recorded, blood was taken from the tail vein, and serum was separated by centrifugation. The uric acid (UA), urea nitrogen (BUN), creatinine (CRE), xanthine oxidase (XOD), adenosine deaminase (ADA) and guanine deaminase (GuDa) in serum were detected. On day 35 of the experiment, the 24-hour urine of the rats was collected, the urine volume was measured, the pH value was determined, and the urinary uric acid level, urinary creatinine level, and urinary urea nitrogen level were detected. […] In the presence of an electron acceptor and a developer, a purple red conjugate was produced, and the activity of xanthine oxidase could be calculated according to the amount of the latter produced. […] Therefore, the activity of serum adenosine deaminase could be calculated. […]

hyperuricemia model [2] = assay: Uric acid reducing effect: serum uric acid in high-fructose hyperuricemia model rats (uricase colorimetric method)
Method: (§2) SD rats were stratified by weight using random number table method, and each layer was divided into a normal group (10 rats), a fructose modeling group (50 rats) and a purine modeling group (24 rats) using random number table method. Tap water was administered to the normal group; a 10% (w/v) fructose solution was administered to the fructose modeling group for modeling; and for the purine modeling group, tap water was administered for drinking, 500 mg/kg of hypoxanthine + 100 mg/kg of nicotinic acid was administered by gastric perfusion according to body weight once a day, and the volume of perfusion was 10 ml/kg. The food and water consumption of rats were recorded daily, the body weights were weighed every 7 days, and blood was taken by shearing the tail tip on the next day of weighing. […] Among them, 0.5% CMC-Na was administered to the normal group and the model group by gastric perfusion, and respective drugs dissolved in 0.5% CMC-Na were administered to the other administration groups by gastric perfusion. The perfusion was performed once every morning. […] During the experiment, since there was no significant difference in blood uric acid level between the purine modeling group and the normal group from beginning to end, the modeling of the hyperuricemia model in rats was not successful, therefore, the rats were not further grouped. Table 1 Gastric perfusion dosages of rats in each group Every 7 days during the experiment, the body weights of the animals were weighed and recorded, blood was taken from the tail vein, and serum was separated by centrifugation. The uric acid (UA), urea nitrogen (BUN), creatinine (CRE), xanthine oxidase (XOD), adenosine deaminase (ADA) and guanine deaminase (GuDa) in serum were detected. On day 35 of the experiment, the 24-hour urine of the rats was collected, the urine volume was measured, the pH value was determined, and the urinary uric acid level, urinary creatinine level, and urinary urea nitrogen level were detected. After the experiment was terminated, the rats were sacrificed, and the right kidneys were taken and weighed. The specific determination method of each index was as follows. • ① Detecting serum uric acid and urinary uric acid by uricase colorimetric method: uric acid was catalyzed by uricase to produce allantoin and hydrogen peroxide (H2O2); […] A serum or urine sample was taken. […] Jaffe reaction occurred between the creatinine in the supernatant of serum from which protein was removed or the creatinine in clear urine and picric acid to produce an orange adduct. A serum or urine sample was taken. […] A serum or urine sample was taken. […] In the presence of an electron acceptor and a developer, a purple red conjugate was produced, and the activity of xanthine oxidase could be calculated according to the amount of the latter produced. A serum sample was taken. According to the operating instruction of Xanthine Oxidase Assay Kit, under the conditions of a cuvette the light path of 1 cm and a wavelength of 530 nm, double distilled water was used for zero calibration; the absorbance was determined by a UV spectrophotometer, and the activity of xanthine oxidase was obtained. • ⑤ Detecting adenosine deaminase (ADA) by enzymatic colorimetric method: adenine riboside was catalyzed by adenosine deaminase to hydrolyze and produce hypoxanthine riboside and ammonia, and the produced ammonia was developed. Therefore, the activity of serum adenosine deaminase could be calculated. A serum sample was taken. […]

[3] = Right kidney weight of rats on day 35
Method: SD rats were stratified by weight using random number table method, and each layer was divided into a normal group (10 rats), a fructose modeling group (50 rats) and a purine modeling group (24 rats) using random number table method. Tap water was administered to the normal group; a 10% (w/v) fructose solution was administered to the fructose modeling group for modeling; and for the purine modeling group, tap water was administered for drinking, 500 mg/kg of hypoxanthine + 100 mg/kg of nicotinic acid was administered by gastric perfusion according to body weight once a day, and the volume of perfusion was 10 ml/kg. The food and water consumption of rats were recorded daily, the body weights were weighed every 7 days, and blood was taken by shearing the tail tip on the next day of weighing. […]
Every 7 days during the experiment, the body weights of the animals were weighed and recorded, blood was taken from the tail vein, and serum was separated by centrifugation. The uric acid (UA), urea nitrogen (BUN), creatinine (CRE), xanthine oxidase (XOD), adenosine deaminase (ADA) and guanine deaminase (GuDa) in serum were detected. On day 35 of the experiment, the 24-hour urine of the rats was collected, the urine volume was measured, the pH value was determined, and the urinary uric acid level, urinary creatinine level, and urinary urea nitrogen level were detected. […]

[4] = Body weight of rats during the 35-day hyperuricemia experiment
Method: SD rats were stratified by weight using random number table method, and each layer was divided into a normal group (10 rats), a fructose modeling group (50 rats) and a purine modeling group (24 rats) using random number table method. Tap water was administered to the normal group; a 10% (w/v) fructose solution was administered to the fructose modeling group for modeling; and for the purine modeling group, tap water was administered for drinking, 500 mg/kg of hypoxanthine + 100 mg/kg of nicotinic acid was administered by gastric perfusion according to body weight once a day, and the volume of perfusion was 10 ml/kg. The food and water consumption of rats were recorded daily, the body weights were weighed every 7 days, and blood was taken by shearing the tail tip on the next day of weighing.
Among them, 0.5% CMC-Na was administered to the normal group and the model group by gastric perfusion, and respective drugs dissolved in 0.5% CMC-Na were administered to the other administration groups by gastric perfusion. The perfusion was performed once every morning. The dosages of administration were as follows: the dosage of benzbromarone was 20 mg/kg, the large-, medium- and small-dosages of the extract of the present disclosure were 1.9 g/kg, 0.95 g/kg, and 0.475 g/kg, respectively, the volume of administration was 15 ml/kg, and the experiment lasted for 35 days in total. During the experiment, since there was no significant difference in blood uric acid level between the purine modeling group and the normal group from beginning to end, the modeling of the hyperuricemia model in rats was not successful, therefore, the rats were not further grouped. Table 1 Gastric perfusion dosages of rats in each group
Every 7 days during the experiment, the body weights of the animals were weighed and recorded, blood was taken from the tail vein, and serum was separated by centrifugation. The uric acid (UA), urea nitrogen (BUN), creatinine (CRE), xanthine oxidase (XOD), adenosine deaminase (ADA) and guanine deaminase (GuDa) in serum were detected. On day 35 of the experiment, the 24-hour urine of the rats was collected, the urine volume was measured, the pH value was determined, and the urinary uric acid level, urinary creatinine level, and urinary urea nitrogen level were detected. After the experiment was terminated, the rats were sacrificed, and the right kidneys were taken and weighed.

hyperuricemia model [5] = assay: Serum urea nitrogen (urease method) and serum creatinine (picric acid method) in hyperuricemia model rats
Method: as §2

xanthine oxidase (XOD) = assay: Serum xanthine oxidase activity in hyperuricemia model rats (enzymatic colorimetric method)
Method: as §1

hyperuricemia model [6] = assay: 24-hour urine indices on day 35 in hyperuricemia model rats (volume, pH, uric acid, creatinine, urea nitrogen, clearances); parameters: Uric acid clearance / Creatinine clearance: unit not given here
Method: as §2

right kidney Weight [3]: 1.43 ± 0.10^ΔΔ g
Structure (SMILES): CCc1oc2ccccc2c1C(=O)c1cc(Br)c(O)c(Br)c1 [Benzbromarone, benzbromarone]
serum adenosine deaminase level ([1]; Day 21): 54.22 ± 8.72 U/ml
serum adenosine deaminase level ([1]; Day 35): 97.69 ± 15.32 U/ml
serum guanine deaminase activity (guanine deaminase (GuDa); Day 21): 29.46 ± 3.57^Δ U/L
serum guanine deaminase activity (guanine deaminase (GuDa); Day 21, listed as benzbromarone): significant decrease
serum guanine deaminase activity (guanine deaminase (GuDa); Day 35): 11.46 ± 4.83 U/L
serum uric acid level (hyperuricemia model [2]; Day 0, modeling period): 75.83 ± 38.77 µmol/L
serum uric acid level (hyperuricemia model [2]; Day 7, modeling period): 94.75 ± 25.26 µmol/L
serum uric acid level (hyperuricemia model [2]; Day 14, modeling period): 65.57±27.48^Δ µmol/L
serum uric acid level (hyperuricemia model [2]; Day 14, modeling period, listed as benzbromarone): significant decrease
serum uric acid level (hyperuricemia model [2]; Day 21, administration period): 68.45 ± 22.20 µmol/L
serum uric acid level (hyperuricemia model [2]; Day 28, administration period): 79.65±24.68^Δ µmol/L
serum uric acid level (hyperuricemia model [2]; Day 28, administration period, listed as benzbromarone): significant decrease
serum uric acid level (hyperuricemia model [2]; Day 35, administration period): 85.66±18.37^Δ µmol/L
serum uric acid level (hyperuricemia model [2]; Day 35, administration period, listed as benzbromarone): significant decrease
body weight ([4]; Day 0, modeling period): 243.40 ± 7.63 g
body weight ([4]; Day 7, modeling period): 325.46 ± 15.10 g
body weight ([4]; Day 14, modeling period): 365.30 ± 20.19 g
body weight ([4]; Day 21, administration period): 391.83 ± 19.39 g
body weight ([4]; Day 28, administration period): 425.86 ± 22.33 g
body weight ([4]; Day 35, administration period): 433.88 ± 27.07 g
Serum creatinine (hyperuricemia model [5]; Day 21): 99.21 ± 17.50 µmol/L
Serum urea nitrogen (hyperuricemia model [5]; Day 21): 5.73 ± 1.02 mM
Serum creatinine (hyperuricemia model [5]; Day 35): 74.54±25.76^Δ µmol/L
Serum urea nitrogen (hyperuricemia model [5]; Day 35): 6.27 ± 1.62 mM
Serum creatinine (hyperuricemia model [5]; Day 35, listed as benzbromarone): significant decrease
serum xanthine oxidase level (xanthine oxidase (XOD); Day 21): 28.66 ± 3.75 U/L
serum xanthine oxidase level (xanthine oxidase (XOD); Day 35): 20.61 ± 2.67 U/L
Creatinine clearance (hyperuricemia model [6]): 1.67 ± 1.18
Uric acid clearance (hyperuricemia model [6]): 0.155 ± 0.047
24-hour Urine volume (hyperuricemia model [6]; Day 35): 117.80 ± 31.17 mL
urinary pH (hyperuricemia model [6]; Day 35): 6.70 ± 0.71
UBUN (concentration of urinary urea nitrogen) (hyperuricemia model [6]; day 35): 156.36 ± 133.40 mmol/L
UCR (concentration of urinary creatinine) (hyperuricemia model [6]; day 35): 1256.25 ± 332.40 µmol/L
UUA (concentration of urinary uric acid) (hyperuricemia model [6]; day 35): 173.57 ± 56.65 µmol/L
